Assays:
[1] = test system: U46619-induced platelet aggregation; assay: Antiplatelet aggregation activity (U46619-induced, turbidity, Lumi-aggregometer); type: cell-based; details: 20 μM, rabbit platelets, n=8
Description: 4. […] After centrifuging at […] for 10 mins, the supernatant is platelet-rich plasma (PRP). The platelet suspension is obtained from EDTA-anticoagulated PRP, and the platelet granules are finally suspended in the Tyrode's solution. […] The turbidity is measured at 37° C. by Lumi-aggregometer connected with two dual channel recorders as the aggregation.

RAW 264.7 cells = assay: Inhibition of RANKL-induced osteoclast differentiation (TRAP staining); type: cell-based; details: 5 μM, 5 days; for TRAP-Positive Cells: RANKL 10 μg/ml, n=5
C57BL/6J mice = assay: The lipid-lowering effect in C57BL/6J mice (high-fat diet); type: in vivo; details: 2.5 mg/kg orally, HFD, after 21 days
Description: 8-week C57BL/6J mice are divided into standard diet (STD) group and the high-fat diet (HFD) group. In the HFD group, the KMUP-1 HCl salt (1, 2.5 and 5 mg/kg), the simvastatin (5 mg/kg), the KMUP-1-Nicotinic acid complex (1 and 5 mg/kg), the KMUP-1-Simvastatinic acid complex (1 and 5 mg/kg), KMUP-1-Gemfibrozil complex (2.5 mg/kg), KMUP-1-Fibric acid complex (2.5 mg/kg), KMUP-1-γ-polyglutamic acid complex (2.5 mg/kg) and KMUP-1-Citric acid complex (2.5 mg/kg) are administered orally. After 21 days, the amounts (mg/dl) of the triglyceride (TG), the total cholesterol (tot.-C), the high density lipoprotein cholesterol (HDL-C), the low density lipoprotein cholesterol (LDL-C) and the serum glucose of six mice for each group are measured as shown in Tables 2 and 3.

H1N1 virus = type: cell-based; details: MDCK culture infected with H1N1 virus, n=6
[2] = test system: STZ-induced diabetic rats; assay: Change of insulin and fasting blood glucose after administration, STZ-induced diabetic rats; type: in vivo; details: 4 mg/kg
Description: Nateglinide, repaglinide or the placebo is administered on day 1 before one hour of the breakfast, and the KMUP-1/KMUP-1-Nateglinide or KMUP-1-Repaglinide are orally administered at 1, 2, 3, 4, 5 and 6 hrs respectively. The amount of the serum glucose (mg/dl), the amount of the serum insulin (mg/dl), the body weight (g) and the change of the body weight are measured.

## COc1ccc2c(c1)c(CC(=O)O)c(C)n2C(=O)c1ccc(Cl)cc1 [Indomethacin, indomethacin, reference compound]
[1]
  The ratio of the antiplatelet aggregation: 87 ± 8.3 %

## Cn1c(=O)c2c(ncn2CCN2CCN(c3ccccc3Cl)CC2)n(C)c1=O [KMUP-1, 7-[2-[4-(2-chlorobenzene)piperazinyl]ethyl]-1,3-dimethylxanthine]
RAW 264.7 cells
  TRAP-positive cell count caused by RANKL (in words): suppressed the TRAP-positive cell count

## CC(C)c1c(C(=O)Nc2ccccc2)c(-c2ccccc2)c(-c2ccc(F)cc2)n1CC[C@@H](O)C[C@@H](O)CC(=O)O.Cn1c(=O)c2c(ncn2CCN2CCN(c3ccccc3Cl)CC2)n(C)c1=O [KMUP-1-Atorvastatinic acid, KMUP-1-Atorvastatinic acid complex]
RAW 264.7 cells
  TRAP-Positive Cells: 78 ± 3

## CC(C)(Oc1ccc(C(=O)c2ccc(Cl)cc2)cc1)C(=O)O.Cn1c(=O)c2c(ncn2CCN2CCN(c3ccccc3Cl)CC2)n(C)c1=O [KMUP-1-Fibric acid, KMUP-1-fibric acid complex]
C57BL/6J mice
  HDL-C: 98.4 ± 1.3 mg/dL
  LDL-C: 18.4 ± 2.2 mg/dL
  TG: 80.2 ± 3.2 mg/dL
  tot.-C: 132.7 ± 1.3 mg/dL

## Cc1ccc(C)c(OCCCC(C)(C)C(=O)O)c1.Cn1c(=O)c2c(ncn2CCN2CCN(c3ccccc3Cl)CC2)n(C)c1=O [KMUP-1-Gemfibrozil, KMUP-1-gemfibrozil complex]
C57BL/6J mice
  HDL-C: 98.7 ± 1.8 mg/dL
  LDL-C: 18.2 ± 1.8 mg/dL
  TG: 79.2 ± 4.6 mg/dL
  tot.-C: 130.7 ± 1.7 mg/dL

## COc1ccc2c(c1)c(CC(=O)O)c(C)n2C(=O)c1ccc(Cl)cc1.Cn1c(=O)c2c(ncn2CCN2CCN(c3ccccc3Cl)CC2)n(C)c1=O [KMUP-1-Indomethacin, KMUP-1-Indomethacin complex]
[1]
  The ratio of the antiplatelet aggregation: 92 ± 5.8 %

## CC[C@H](C)C(=O)O[C@H]1C[C@@H](C)C=C2C=C[C@H](C)[C@H](CC[C@@H](O)C[C@@H](O)CC(=O)O)[C@H]21.Cn1c(=O)c2c(ncn2CCN2CCN(c3ccccc3Cl)CC2)n(C)c1=O [KMUP-1-Lovastatinic acid, KMUP-1-Lovastatinic acid complex]
RAW 264.7 cells
  TRAP-Positive Cells: 73 ± 6
H1N1 virus
  IC50: 1.9 µg/mL

## CC(C)[C@H]1CC[C@H](C(=O)N[C@H](Cc2ccccc2)C(=O)O)CC1.Cn1c(=O)c2c(ncn2CCN2CCN(c3ccccc3Cl)CC2)n(C)c1=O [KMUP-1-Nat, KMUP-1-Nateglinide Complex]
[2]; 1 hr
  The change of the fasting blood glucose after administration: 4.67 ± 0.7 mg/dL
  The change of the insulin after administration: 38 ± 2.7 U/mL
[2]; 2 hr
  The change of the fasting blood glucose after administration: 0.8 ± 0.4 mg/dL
  The change of the insulin after administration: 51.3 ± 4.3 U/mL
[2]; 3 hr
  The change of the insulin after administration: 31.8 ± 3.7 U/mL
[2]; 4 hr
  The change of the insulin after administration: 21.8 ± 5.3 U/mL
[2]; 6 hr
  The change of the fasting blood glucose after administration: -0.2 ± 0.3 mg/dL
  The change of the insulin after administration: 3.4 ± 0.6 U/mL
